The numbers were not newly measured in US12303506B2, “Trabectedin composition” (EXTROVIS AG, priority 2022, dated 2025), which cites them from elsewhere.

For the data set the following is noted: background statement.

Regarding `COc1cc2c(cc1O)CCN[C@]21CS[C@@H]2c3c(OC(C)=O)c(C)c4c(c3[C@H](COC1=O)N1[C@@H]2[C@H]2c3c(cc(C)c(OC)c3O)C[C@@H]([C@@H]1O)N2C)OCO4` [Trabectedin, (1′R,6R,6aR,7R,13S,14S,16R)-5(acetyloxy)-3′,4′,6,6a,7,13,14,16-octahydro-6′,8,14-trihydroxy-7′,9-dimethoxy-4,10,23 trimethylspiro[6,16-(epithiopropanoxymethano)-7,13-imino-12H-1,3dioxolo[7,8]isoquino[3,2b][3]benzazocine-20,1′(2′H)-isoquinolin]-19-one], the aqueous solubility entry is on record as “limited aqueous solubility”.
